{"source": "patent US10829481B2", "about": "“Benzimidazole derivatives as modulators of ROR-gamma” (Vitae Pharmaceuticals, LLC, priority 2016, dated 2020)", "key": {"[1]": {"biological_target": "recombinant RORγ Ligand Binding Domain (LBD) protein (Homo sapiens (Human), UniProt P51449)", "sequence (P51449 269-508)": "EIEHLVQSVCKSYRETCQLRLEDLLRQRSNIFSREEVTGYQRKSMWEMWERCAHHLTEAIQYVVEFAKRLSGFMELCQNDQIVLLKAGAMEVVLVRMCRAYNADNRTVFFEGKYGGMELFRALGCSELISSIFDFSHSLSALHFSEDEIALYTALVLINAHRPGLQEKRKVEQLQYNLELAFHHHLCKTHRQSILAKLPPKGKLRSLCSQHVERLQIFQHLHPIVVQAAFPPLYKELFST", "assay": "Radio-Ligand RORγ Binding Assay (Assay 1)", "conditions": "competition with 25-hydroxy [26,27-3H]-cholesterol, SPA", "protocol": "Radio-Ligand RORγ Binding Assay (Assay 1)\nCompounds described herein were tested for ability to bind to RORγ in a cell-free competition assay with commercially available radio-ligand (RL), 25-hydroxy [26,27-^3H]-cholesterol (PerkinElmer, Cat. #NET674250UC), for a ligand binding site on a recombinant RORγ Ligand Binding Domain (LBD) protein expressed as a 6×His-Glutathione-S-Transferase (GST) fusion. The assay was performed in 96-well SPA plates (PerkinElmer, Cat. #1450-401) in 50 mM HEPES buffer, pH 7.4, containing 150 mM NaCl, 5 mM MgCl2, 10% (v/v) glycerol, 2 mM CHAPS, 0.5 mM β-octylglucopyranoside and 5 mM DTT. Tested compounds were dissolved in DMSO, and semi-log (3.162×) serial dilutions of the compounds were prepared in the same solvent. Two μL of the DMSO solutions were mixed with 28 μL of 8.6 nM 25-hydroxy [26,27-^3H]-cholesterol and 50 μL of 24 nM RORγ LBD. The plate was shaken at 700 rpm for 20 min and incubated for 10 min at rt, after which 40 μL of poly-Lys YSi SPA beads (PerkinElmer, Cat. #RPNQ0010) were added to achieve […] of the beads per well. The plate was incubated on an orbital shaker for 20 min and then for 10 min without agitation at rt. SPA signal for tritium beta radiation was registered on PerkinElmer Microbeta plate reader. […] The percent inhibition vs. concentration data were fit into a four-parameter model, and IC50 values were calculated from the fit as the concentrations corresponding to the inflection points on the dose-response curves. Inhibitory constants (Ki) were calculated using the following equation, where [RL] is the concentration in the assay and KD is a dissociation constant of 25-hydroxy [26,27-^3H]-cholesterol: […]"}, "[2]": {"biological_target": "full-length RORγt in Jurkat cells (Homo sapiens (Human), UniProt P51449)", "sequence (P51449 other isoform, or with tags, fused parts or gaps)": "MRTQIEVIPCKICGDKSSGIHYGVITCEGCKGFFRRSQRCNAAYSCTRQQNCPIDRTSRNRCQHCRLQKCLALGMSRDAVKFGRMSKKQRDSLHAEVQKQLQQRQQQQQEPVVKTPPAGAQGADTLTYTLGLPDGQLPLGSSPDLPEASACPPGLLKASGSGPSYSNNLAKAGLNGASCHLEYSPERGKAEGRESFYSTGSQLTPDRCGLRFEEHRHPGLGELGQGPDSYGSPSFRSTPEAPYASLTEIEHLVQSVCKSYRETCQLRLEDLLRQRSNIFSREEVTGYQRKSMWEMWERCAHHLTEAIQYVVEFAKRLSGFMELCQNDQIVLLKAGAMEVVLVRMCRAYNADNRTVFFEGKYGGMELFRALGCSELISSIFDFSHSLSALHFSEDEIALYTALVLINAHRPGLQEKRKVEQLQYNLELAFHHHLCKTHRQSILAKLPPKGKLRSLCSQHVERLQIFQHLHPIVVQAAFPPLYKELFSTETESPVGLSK", "assay": "RORγt 5×RORE Assay in Jurkat Cells (Assay 2)", "assay_type": "cell-based", "conditions": "5×RORE Nanoluc luciferase reporter", "protocol": "RORγt 5×RORE Assay in Jurkat Cells (Assay 2)\nCompounds described herein were tested for RORγ inverse agonist activity in a cell-based, transcriptional activity assay. Secreted Nanoluc® luciferase was used as a reporter for transcriptional activity of the full-length RORγt in Jurkat cells (ATCC, Cat. #TIB-152). […] (Promega, Cat. #N1021) using KpnI and HindIII restriction sites. […] After 5-6 hrs of incubation at 37° C./5% CO2, the cells were collected, resuspended in phenol-red free RPMI media containing 10% (v/v) delipidated FBS (Hyclone, Cat. #SH30855.03) and dispensed into 96-well clear bottom tissue culture plates (CoStar, Cat. #3603), at 80,000 cells per well. Tested compounds were added to the cells in the same media (final concentration of DMSO was 0.1% (v/v)), and the plates were incubated at 37° C./5% CO2 for 16-18 hrs. Luciferase activity in the conditioned supernatants was determined with NanoGlo® assay reagents (Promega, Cat. #N1130)."}}, "note": "pIC50, pKi: −log10 of the molar value."}
{"smiles": "CCS(=O)(=O)c1ccc(CNC(=O)c2ccc3c(c2)nc([C@H](C)OC)n3Cc2cccc3c2OC(F)(F)O3)cc1", "note": "(mixture of isomers) [I-49.1, (S)-1-((2,2-difluorobenzo[d][1,3]dioxol-4-yl)methyl)-N-(4-(ethylsulfonyl)benzyl)-2-(1-methoxyethyl)-1H-benzo[d]imidazole-5-carboxamide and (R)-1-((2,2-difluorobenzo[d][1,3]dioxol-4-yl)methyl)-N-(4-(ethylsulfonyl)benzyl)-2-(1-methoxyethyl)-1H-benzo[d]imidazole-5-carboxamide]", "values": [{"measurement": "pKi", "setting": "[1]", "value": "> 7.00"}, {"measurement": "pIC50", "setting": "[2]", "value": "> 7.00"}]}
{"smiles": "CCS(=O)(=O)c1ccc(CNC(=O)c2ccc3c(c2)nc([C@@H](C)OC)n3Cc2cccc3c2OC(F)(F)O3)cc1", "note": "(mixture of isomers) [I-49.2, (S)-1-((2,2-difluorobenzo[d][1,3]dioxol-4-yl)methyl)-N-(4-(ethylsulfonyl)benzyl)-2-(1-methoxyethyl)-1H-benzo[d]imidazole-5-carboxamide and (R)-1-((2,2-difluorobenzo[d][1,3]dioxol-4-yl)methyl)-N-(4-(ethylsulfonyl)benzyl)-2-(1-methoxyethyl)-1H-benzo[d]imidazole-5-carboxamide]", "values": [{"measurement": "pKi", "setting": "[1]", "value": "> 7.00"}, {"measurement": "pIC50", "setting": "[2]", "value": "> 7.00"}]}
{"smiles": "CS(=O)(=O)N1CCC([C@@H](CO)NC(=O)c2ccc3c(c2)nc(C(F)(F)F)n3Cc2cccc3c2OC(F)(F)O3)CC1", "note": "(mixture of isomers) [I-164.1, (R)-1-((2,2-difluorobenzo[d][1,3]dioxol-4-yl)methyl)-N-(2-hydroxy-1-(1-(methylsulfonyl)piperidin-4-yl)ethyl)-2-(trifluoromethyl)-1H-benzo[d]imidazole-5-carboxamide and (S)-1-((2,2-difluorobenzo[d][1,3]dioxol-4-yl)methyl)-N-(2-hydroxy-1-(1-(methylsulfonyl)piperidin-4-yl)ethyl)-2-(trifluoromethyl)-1H-benzo[d]imidazole-5-carboxamide]", "values": [{"measurement": "pKi", "setting": "[1]", "value": "> 7.00"}, {"measurement": "pIC50", "setting": "[2]", "value": "> 7.00"}]}
{"smiles": "CS(=O)(=O)N1CCC([C@H](CO)NC(=O)c2ccc3c(c2)nc(C(F)(F)F)n3Cc2cccc3c2OC(F)(F)O3)CC1", "note": "(mixture of isomers) [I-164.2, (R)-1-((2,2-difluorobenzo[d][1,3]dioxol-4-yl)methyl)-N-(2-hydroxy-1-(1-(methylsulfonyl)piperidin-4-yl)ethyl)-2-(trifluoromethyl)-1H-benzo[d]imidazole-5-carboxamide and (S)-1-((2,2-difluorobenzo[d][1,3]dioxol-4-yl)methyl)-N-(2-hydroxy-1-(1-(methylsulfonyl)piperidin-4-yl)ethyl)-2-(trifluoromethyl)-1H-benzo[d]imidazole-5-carboxamide]", "values": [{"measurement": "pKi", "setting": "[1]", "value": "> 7.00"}, {"measurement": "pIC50", "setting": "[2]", "value": "> 7.00"}]}
{"smiles": "CCS(=O)(=O)c1ccc([C@H](O)C(=O)Nc2ccc3c(c2)nc(C(F)(F)F)n3Cc2cccc3c2OC(F)(F)O3)cc1", "note": "(mixture of isomers) [I-170.1, (S)-N-(1-((2,2-difluorobenzo[d][1,3]dioxol-4-yl)methyl)-2-(trifluoromethyl)-1H-benzo[d]imidazol-5-yl)-2-(4-(ethylsulfonyl)phenyl)-2-hydroxyacetamide and (R)-N-(1-((2,2-difluorobenzo[d][1,3]dioxol-4-yl)methyl)-2-(trifluoromethyl)-1H-benzo[d]imidazol-5-yl)-2-(4-(ethylsulfonyl)phenyl)-2-hydroxyacetamide]", "values": [{"measurement": "pKi", "setting": "[1]", "value": "> 7.00"}, {"measurement": "pIC50", "setting": "[2]", "value": "> 7.00"}]}
{"smiles": "CCS(=O)(=O)c1ccc([C@@H](O)C(=O)Nc2ccc3c(c2)nc(C(F)(F)F)n3Cc2cccc3c2OC(F)(F)O3)cc1", "note": "(mixture of isomers) [I-170.2, (S)-N-(1-((2,2-difluorobenzo[d][1,3]dioxol-4-yl)methyl)-2-(trifluoromethyl)-1H-benzo[d]imidazol-5-yl)-2-(4-(ethylsulfonyl)phenyl)-2-hydroxyacetamide and (R)-N-(1-((2,2-difluorobenzo[d][1,3]dioxol-4-yl)methyl)-2-(trifluoromethyl)-1H-benzo[d]imidazol-5-yl)-2-(4-(ethylsulfonyl)phenyl)-2-hydroxyacetamide]", "values": [{"measurement": "pKi", "setting": "[1]", "value": "> 7.00"}, {"measurement": "pIC50", "setting": "[2]", "value": "> 7.00"}]}
{"smiles": "CCS(=O)(=O)c1ccc(CC(=O)Nc2ccc3c(c2)nc(C(F)(F)F)n3Cc2cccc3c2OC(F)(F)O3)cc1", "note": "[I-1, N-(1-((2,2-difluorobenzo[d][1,3]dioxol-4-yl)methyl)-2-(trifluoromethyl)-1H-benzo[d]imidazol-5-yl)-2-(4-(ethylsulfonyl)phenyl)acetamide]", "values": [{"measurement": "pKi", "setting": "[1]", "value": "> 7.00"}, {"measurement": "pIC50", "setting": "[2]", "value": "> 7.00"}]}
{"smiles": "CS(=O)(=O)c1ccc(CC(=O)Nc2ccc3c(c2)nc(C(F)(F)F)n3Cc2cccc3c2OC(F)(F)O3)cc1", "note": "[I-2, N-(1-((2,2-difluorobenzo[d][1,3]dioxol-4-yl)methyl)-2-(trifluoromethyl)-1H-benzo[d]imidazol-5-yl)-2-(4-(methylsulfonyl)phenyl)acetamide]", "values": [{"measurement": "pKi", "setting": "[1]", "value": "> 7.00"}, {"measurement": "pIC50", "setting": "[2]", "value": "> 7.00"}]}
{"smiles": "O=C(Cc1ccc(S(=O)(=O)CCO)cc1)Nc1ccc2c(c1)nc(C(F)(F)F)n2Cc1cccc2c1OC(F)(F)O2", "note": "[I-3, N-(1-((2,2-difluorobenzo[d][1,3]dioxol-4-yl)methyl)-2-(trifluoromethyl)-1H-benzo[d]imidazol-5-yl)-2-(4-((2-hydroxyethyl)sulfonyl)phenyl)acetamide]", "values": [{"measurement": "pKi", "setting": "[1]", "value": "> 7.00"}, {"measurement": "pIC50", "setting": "[2]", "value": "> 7.00"}]}
{"smiles": "COCCS(=O)(=O)c1ccc(CC(=O)Nc2ccc3c(c2)nc(C(F)(F)F)n3Cc2cccc3c2OC(F)(F)O3)cc1", "note": "[I-4, N-(1-((2,2-difluorobenzo[d][1,3]dioxol-4-yl)methyl)-2-(trifluoromethyl)-1H-benzo[d]imidazol-5-yl)-2-(4-((2-methoxyethyl)sulfonyl)phenyl)acetamide]", "values": [{"measurement": "pKi", "setting": "[1]", "value": "> 7.00"}, {"measurement": "pIC50", "setting": "[2]", "value": "> 7.00"}]}
{"smiles": "CNS(=O)(=O)c1ccc(CC(=O)Nc2ccc3c(c2)nc(C(F)(F)F)n3Cc2cccc3c2OC(F)(F)O3)cc1", "note": "[I-5, N-(1-((2,2-difluorobenzo[d][1,3]dioxol-4-yl)methyl)-2-(trifluoromethyl)-1H-benzo[d]imidazol-5-yl)-2-(4-(N-methylsulfamoyl)phenyl)acetamide]", "values": [{"measurement": "pKi", "setting": "[1]", "value": "> 7.00"}, {"measurement": "pIC50", "setting": "[2]", "value": "> 7.00"}]}
{"smiles": "N#Cc1ccc(CC(=O)Nc2ccc3c(c2)nc(C(F)(F)F)n3Cc2cccc3c2OC(F)(F)O3)cc1", "note": "[I-6, 2-(4-cyanophenyl)-N-(1-((2,2-difluorobenzo[d][1,3]dioxol-4-yl)methyl)-2-(trifluoromethyl)-1H-benzo[d]imidazol-5-yl)acetamide]", "values": [{"measurement": "pKi", "setting": "[1]", "value": "> 7.00"}, {"measurement": "pIC50", "setting": "[2]", "value": "< 6.00"}]}
{"smiles": "CCS(=O)(=O)c1ccc(CC(=O)Nc2ccc3c(c2)nc(C2CC2)n3Cc2cccc3c2OC(F)(F)O3)cc1", "note": "[I-9, N-(2-cyclopropyl-1-((2,2-difluorobenzo[d][1,3]dioxol-4-yl)methyl)-1H-benzo[d]imidazol-5-yl)-2-(4-(ethylsulfonyl)phenyl)acetamide]", "values": [{"measurement": "pKi", "setting": "[1]", "value": "> 7.00"}, {"measurement": "pIC50", "setting": "[2]", "value": "> 7.00"}]}
{"smiles": "CS(=O)(=O)N1CCC(CC(=O)Nc2ccc3c(c2)nc(C(F)(F)F)n3Cc2cccc3c2OC(F)(F)O3)CC1", "note": "[I-10, N-(1-((2,2-difluorobenzo[d][1,3]dioxol-4-yl)methyl)-2-(trifluoromethyl)-1H-benzo[d]imidazol-5-yl)-2-(1-(methylsulfonyl)piperidin-4-yl)acetamide]", "values": [{"measurement": "pKi", "setting": "[1]", "value": "> 7.00"}, {"measurement": "pIC50", "setting": "[2]", "value": "< 6.00"}]}
{"smiles": "CCS(=O)(=O)c1ccc([C@H](CO)NC(=O)c2ccc3c(c2)nc(C(F)(F)F)n3Cc2cccc3c2OC(F)(F)O3)cc1", "note": "[I-11.1, (R)-1-((2,2-difluorobenzo[d][1,3]dioxol-4-yl)methyl)-N-(1-(4-(ethylsulfonyl)phenyl)-2-hydroxyethyl)-2-(trifluoromethyl)-1H-benzo[d]imidazole-5-carboxamide]", "values": [{"measurement": "pKi", "setting": "[1]", "value": "> 7.00"}, {"measurement": "pIC50", "setting": "[2]", "value": "> 7.00"}]}
{"smiles": "CCS(=O)(=O)c1ccc([C@@H](CO)NC(=O)c2ccc3c(c2)nc(C(F)(F)F)n3Cc2cccc3c2OC(F)(F)O3)cc1", "note": "[I-11.2, (S)-1-((2,2-difluorobenzo[d][1,3]dioxol-4-yl)methyl)-N-(1-(4-(ethylsulfonyl)phenyl)-2-hydroxyethyl)-2-(trifluoromethyl)-1H-benzo[d]imidazole-5-carboxamide]", "values": [{"measurement": "pKi", "setting": "[1]", "value": "> 7.00"}, {"measurement": "pIC50", "setting": "[2]", "value": "> 7.00"}]}
